Laboratory results published in patent publication US12495798B2, “Nicotinamide compound and herbicidal composition comprising compound” (KOREA RESEARCH INSTITUTE OF CHEMICAL TECHNOLOGY, priority 2019, dated 2025).

Tests used:
Assay type in all cases: in vivo
[1] = test system: barnyard grass; test: Herbicidal activity test against upland field weeds (foliar treatment test); parameters: key to Foliar treatment herbicidal activity, barnyard grass: 0 (no control); 100 (complete control); settings: 50 g ai/ha, scale 0-100; for pest or weed control at 50 g/ha: Echinochloa crus-galli
Procedure, shortened: (§1)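 Greenhouse-grown plants (30±5 °C, 14/10 h light/dark) foliar hand-sprayed with compound in 50% acetone, 0.1% Tween-20 at 50 or 75 g a.i./ha. Control visually scored 0 (none) to 100 (complete) versus untreated after 14 days, or 21 days if needed.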

[2] = test system: indian jointvetch; test: as above; settings: 50 g ai/ha, scale 0-100
Procedure, shortened: as §1

[3] = test system: cocklebur; test: as above; parameters: key to Foliar treatment herbicidal activity, Cocklebur: 0 (no control); 100 (complete control); settings: 50 g ai/ha, scale 0-100; for pest or weed control at 50 g/ha: Xanthium strumarium
Procedure, shortened: as §1

[4] = test system: sorghum; test: Herbicidal activity test against upland field weeds (soil treatment test); parameters: key to Soil treatment herbicidal activity, Sorghum: 0 (no control); 100 (complete control); settings: 50 g ai/ha, scale 0 (no control) to 100 (complete control)
Procedure, shortened: (§2)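 Pre-emergence soil surface spray, day after sowing, into sandy loam pots with fertilizer; compounds at 50 or 75 g a.i./ha in 50% acetone, 0.1% Tween-20. Greenhouse at 30±5 °C, 14/10 h light/dark; visual control rated 0–100 against untreated after 14 days (21 if needed).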

[5] = test system: quack grass; test: as above; parameters: key to Soil treatment herbicidal activity, quack grass: 0 (no control); 100 (complete control); settings: 50 g ai/ha, scale 0 (no control) to 100 (complete control)
Procedure, shortened: as §2

[6] = test system: indian jointvetch; test: as above; parameters: key to Soil treatment herbicidal activity, Indian jointvetch: 0 (no control); 100 (complete control); settings: 50 g ai/ha, scale 0 (no control) to 100 (complete control)
Procedure, shortened: as §2

[7] = test system: velvetleaf; test: as above; parameters: key to Soil treatment herbicidal activity, velvet leaf: 0 (no control); 100 (complete control); settings: 50 g ai/ha, scale 0 (no control) to 100 (complete control)
Procedure, shortened: as §2

[8] = test system: bindweed; test: as above; parameters: key to Soil treatment herbicidal activity, Bindweed: 0 (no control); 100 (complete control); settings: 50 g ai/ha, scale 0 (no control) to 100 (complete control)
Procedure, shortened: as §2

[9] = test system: corn; test: Phytotoxicity test for upland field crops (foliar treatment test); parameters: key: 0 (no harm); 9 (complete withered)
Procedure, shortened: (§3)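 Phytotoxicity was rated on a 0 (no harm) to 9 (complete withered) scale relative to untreated plants, 7 and 14 days after spraying. Crops had been grown in fertilized horticultural soil under greenhouse conditions before foliar application at 19˜300 g a.i./ha.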

[10] = test system: cotton; test: as above; parameters: key: 0 (no harm); 9 (complete withered)
Procedure, shortened: as §3

[11] = test system: rice; test: as above; parameters: key: 0 (no harm); 9 (complete withered)
Procedure, shortened: as §3

[12] = test system: soybean; test: as above; parameters: key: 0 (no harm); 9 (complete withered)
Procedure, shortened: as §3

[13] = test system: wheat; test: as above; parameters: key: 0 (no harm); 9 (complete withered)
Procedure, shortened: as §3

[14] = test system: bindweed; test: Herbicidal activity test against upland field weeds (foliar treatment test); parameters: key to Foliar treatment herbicidal activity, Bindweed: 0 (no control); 100 (complete control); settings: 50 g ai/ha, scale 0-100
Procedure, shortened: as §1

[15] = 50 g ai/ha, Corn (7 days after treatment)
[16] = 50 g ai/ha, Corn (14 days after treatment)
[17] = 100 g ai/ha, Corn (7 days after treatment)
[18] = 100 g ai/ha, Corn (14 days after treatment)
[19] = 50 g ai/ha, Wheat (7 days after treatment)
[20] = 50 g ai/ha, Wheat (14 days after treatment)
[21] = 100 g ai/ha, Wheat (7 days after treatment)
[22] = 100 g ai/ha, Wheat (14 days after treatment)

Row | SMILES | pest or weed control at 50 g/ha [1] [%] | pest or weed control at 50 g/ha [2] [%] | Foliar treatment herbicidal activity, Cocklebur [3] | Soil treatment herbicidal activity, Sorghum [4] | Soil treatment herbicidal activity, quack grass [5] | Soil treatment herbicidal activity, Indian jointvetch [6] | Soil treatment herbicidal activity, velvet leaf [7] | Soil treatment herbicidal activity, Bindweed [8] | Foliar treatment phytotoxicity, Corn [9, 15] | Foliar treatment phytotoxicity, Corn [9, 16] | Foliar treatment phytotoxicity, Corn [9, 17] | Foliar treatment phytotoxicity, Corn [9, 18] | Foliar treatment phytotoxicity, Wheat [13, 19] | Foliar treatment phytotoxicity, Wheat [13, 20] | Foliar treatment phytotoxicity, Wheat [13, 21] | Foliar treatment phytotoxicity, Wheat [13, 22] | pest or weed control at 50 g/ha [3] [%] | pest or weed control at 50 g/ha [14] [%] | Foliar treatment herbicidal activity, barnyard grass [1] | other results
1 | Cn1nnnc1COc1nc(C(F)(F)F)ccc1C(=O)Nc1nnnn1C [Compound No. 1-1, N-(1-methyl-1H-tetrazol-5-yl)-2-((1-methyl-1H-tetrazol-5-yl)methoxy)-6-(trifluoromethyl)nicotinamide] | 98 | 30 | 100 | 0 | 0 | 0 | 100 | 0 | 2 | 2 | 4 | 4 | 1 | 1 | 3 | 2 | – | – | – | Foliar treatment phytotoxicity, Cotton ([10]; 50 g ai/ha, Cotton (7 days after treatment)): 3; Foliar treatment phytotoxicity, Cotton ([10]; 50 g ai/ha, Cotton (14 days after treatment)): 0; Foliar treatment phytotoxicity, Cotton ([10]; 100 g ai/ha, Cotton (7 days after treatment)): 3; Foliar treatment phytotoxicity, Cotton ([10]; 100 g ai/ha, Cotton (14 days after treatment)): 7; Foliar treatment phytotoxicity, Rice ([11]; 50 g ai/ha, Rice (7 days after treatment)): 4; Foliar treatment phytotoxicity, Rice ([11]; 50 g ai/ha, Rice (14 days after treatment)): 8; Foliar treatment phytotoxicity, Rice ([11]; 100 g ai/ha, Rice (7 days after treatment)): 6; Foliar treatment phytotoxicity, Rice ([11]; 100 g ai/ha, Rice (14 days after treatment)): 9; Foliar treatment phytotoxicity, Soybean ([12]; 50 g ai/ha, Soybean (7 days after treatment)): 7; Foliar treatment phytotoxicity, Soybean ([12]; 50 g ai/ha, Soybean (14 days after treatment)): 0; Foliar treatment phytotoxicity, Soybean ([12]; 100 g ai/ha, Soybean (7 days after treatment)): 8; Foliar treatment phytotoxicity, Soybean ([12]; 100 g ai/ha, Soybean (14 days after treatment)): 9
2 | Cn1nnnc1COc1nc(C(F)(F)F)ccc1C(=S)Nc1nnnn1C [Compound No. 1-43, N-(1-methyl-1H-tetrazol-5-yl)-2-((1-methyl-1H-tetrazol-5-yl)methoxy)-6-(trifluoromethyl)pyridin-3-carbothioamide] | 95 | 30 | – | 0 | 0 | 0 | – | 0 | – | – | – | – | – | – | – | – | 90 | 70 | – | pest or weed control at 50 g/ha ([7]; Abutilon theophrasti, read-out: Soil treatment herbicidal activity, velvet leaf): 90%
3 | Cn1nnc(CS(=O)(=O)Cc2nc(C(F)(F)F)ccc2C(=O)Nc2nnnn2C)n1 [Compound No. 2-105, N-(1-methyl-1H-tetrazol-5-yl)-2-((((2-methyl-2H-tetrazol-5-yl)methyl)sulfonyl)methyl)-6-(trifluoromethyl)nicotinamide] | – | 95 | – | 0 | 0 | – | 100 | – | 0 | 0 | 0 | 0 | 3 | 4 | 4 | 4 | 98 | 80 | 0 | pest or weed control at 50 g/ha [6]: 90%; pest or weed control at 50 g/ha [8]: 30%
4 | Cn1nnc(CSCc2nc(C(F)F)ccc2C(=O)Nc2nnnn2C)n1 [Compound No. 2-108, 6-(difluoromethyl)-N-(1-methyl-1H-tetrazol-5-yl)-2-((((2-methyl-2H-tetrazol-5-yl)methyl)thio)methyl)nicotinamide] | 60 | 80 | – | 0 | 0 | 0 | 0 | 0 | 0 | 0 | 0 | 0 | 3 | 3 | 4 | 4 | 98 | 90 | – | –
5 | Cn1nnc(CSCc2nc(C(F)(F)F)ccc2C(=O)N(C(=O)c2ccccc2)c2nnnn2C)n1 [Compound No. 2-109, N-benzoyl-N-(1-methyl-1H-tetrazol-5-yl)-2-((((2-methyl-2H-tetrazol-5-yl)methyl)thio)methyl)-6-(trifluoromethyl)nicotinamide] | – | 98 | 100 | 0 | 0 | 0 | 100 | 0 | 0 | 0 | 0 | 0 | 2 | 2 | 3 | 3 | – | 98 | 100 | –
6 | CCOC(=O)OC(C)n1nnn(C)c1=NC(=O)c1ccc(C(F)(F)F)nc1CSCc1nnn(C)n1 (stereo not drawn) [Compound No. 4-10, ethyl (1-(4-methyl-5-((2-((((2-methyl-2H-tetrazol-5-yl)methyl)thio)methyl)-6-(trifluoromethyl)nicotinoyl)imino)-4,5-dihydro-1H-tetrazol-1-yl)ethyl)carbonate] | – | – | 100 | 40 | 0 | 95BI | 100 | 40 | 2 | 1 | 3 | 1 | 0 | 0 | 0 | 0 | – | – | 98 | Foliar treatment herbicidal activity, Indian jointvetch [2]: 98; Foliar treatment herbicidal activity, Bindweed [14]: 100
